In patent publication US20160083357A1, “NOVEL TETRAZOLONE DERIVATIVES” (Hoffmann-La Roche Inc., priority 2013, published 2016):
Where two headings read alike, the source gives them in different places.

Tests used:
human CB2 receptors = molecular target: T1, human CB2 receptors (Homo sapiens, UniProt P34972); assay: cAMP assay, human CB2; format: cell-based
T1 construct: expressed in transfected cells; host or cells: CHO cells
How it was run: (§1)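 CHO cells expressing human CB1 or CB2, preincubated in Krebs Ringer bicarbonate with 1 mM IBMX, then compound for 30 min at 30° C. cAMP quantified by time-resolved FRET (cAMP-Nano-TRF) against a cAMP standard curve; EC50 values derived.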

human CB1 receptors = molecular target: T2, human CB1 receptors (Homo sapiens, UniProt P21554); assay: cAMP assay, human CB1; format: cell-based
T2 construct: expressed in transfected cells; host or cells: CHO cells
How it was run: as §1

[1] = functional cAMP assay, CHO cells expressing human CB2, read-out: Ec50: CB2 - hu cAMP
[2] = functional cAMP assay, CHO cells expressing human CB1, read-out: Ec50: CB1 - hu cAMP

T2 sequence (P21554 whole entry): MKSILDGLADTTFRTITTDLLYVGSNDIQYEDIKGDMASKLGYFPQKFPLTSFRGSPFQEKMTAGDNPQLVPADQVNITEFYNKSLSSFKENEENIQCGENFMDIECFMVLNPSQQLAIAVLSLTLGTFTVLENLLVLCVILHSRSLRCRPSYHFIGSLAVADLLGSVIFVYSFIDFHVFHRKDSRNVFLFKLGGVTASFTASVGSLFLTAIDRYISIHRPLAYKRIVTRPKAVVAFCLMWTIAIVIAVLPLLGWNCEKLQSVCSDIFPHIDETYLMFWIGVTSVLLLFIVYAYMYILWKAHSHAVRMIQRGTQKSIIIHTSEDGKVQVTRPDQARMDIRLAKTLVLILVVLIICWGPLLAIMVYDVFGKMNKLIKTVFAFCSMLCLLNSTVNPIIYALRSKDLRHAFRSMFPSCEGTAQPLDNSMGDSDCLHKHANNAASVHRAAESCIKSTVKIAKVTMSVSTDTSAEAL
T1 sequence (P34972 whole entry): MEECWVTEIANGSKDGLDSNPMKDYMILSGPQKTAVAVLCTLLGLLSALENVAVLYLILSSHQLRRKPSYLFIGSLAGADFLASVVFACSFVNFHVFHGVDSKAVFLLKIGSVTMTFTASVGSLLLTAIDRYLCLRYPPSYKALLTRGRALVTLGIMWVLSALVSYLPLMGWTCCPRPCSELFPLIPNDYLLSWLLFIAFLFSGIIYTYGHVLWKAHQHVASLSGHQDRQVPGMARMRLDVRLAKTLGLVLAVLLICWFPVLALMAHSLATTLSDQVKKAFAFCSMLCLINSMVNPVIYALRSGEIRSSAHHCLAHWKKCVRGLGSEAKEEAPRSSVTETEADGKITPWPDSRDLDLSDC

SMILES | EC50 (human CB2 receptors; [1]) | EC50 (human CB1 receptors; [2]) | EC50 (human CB2 receptors) | EC50 (human CB1 receptors)
O=C(N1CCCC1Cc1ccccc1)n1nnn(-c2cccc(F)c2)c1=O (stereo not drawn) [Example 9, 1-(2-Benzyl-pyrrolidine-1-carbonyl)-4-(3-fluoro-phenyl)-1,4-dihydro-tetrazol-5-one] | 4.1 nM | > 10000 nM |  | 
COCCN(C(=O)n1nnn(-c2cccc(OC(F)(F)F)c2)c1=O)C(C)C [Example 84, 5-Oxo-4-(3-trifluoromethoxy-phenyl)-4,5-dihydro-tetrazole-1-carboxylic acid isopropyl-(2-methoxy-ethyl)-amide] | 9.5 nM | > 10000 nM |  | 
CN(C)C(=O)CN1CCN(C(=O)n2nnn(-c3cccc(Cl)c3)c2=O)CC1 [Example 92, 2-{4-[4-(3-Chloro-phenyl)-5-oxo-4,5-dihydro-tetrazole-1-carbonyl]-piperazin-1-yl}-N,N-dimethyl-acetamide] | 16.4 nM | > 10000 nM |  | 
O=C(N1CCOCC1)n1nnn(-c2cccc(OC(F)(F)F)c2)c1=O [Example 102, 1-(Morpholine-4-carbonyl)-4-(3-trifluoromethoxy-phenyl)-1,4-dihydro-tetrazol-5-one] | 4.4 nM | > 10000 nM |  | 
COCCN(C(=O)n1nnn(-c2ccc(Cl)cc2)c1=O)C(C)C [Example 85, 4-(4-Chloro-phenyl)-5-oxo-4,5-dihydro-tetrazole-1-carboxylic acid isopropyl-(2-methoxy-ethyl)-amide] |  |  | 7.9 nM | > 10000 nM
N#C[C@@H]1CCCN1C(=O)n1nnn(-c2cccc(F)c2)c1=O [Example 51, (S)-1-[4-(3-Fluoro-phenyl)-5-oxo-4,5-dihydro-tetrazole-1-carbonyl]-pyrrolidine-2-carbonitrile] | 154 nM | > 10000 nM |  | 
CCN(Cc1ccccc1)C(=O)n1nnn(-c2ccc(Cl)nc2)c1=O [Example 53, 4-(6-Chloro-pyridin-3-yl)-5-oxo-4,5-dihydro-tetrazole-1-carboxylic acid benzyl-ethyl-amide] |  |  | 1 nM | > 10000 nM
CC(=O)N[C@@H]1CCN(C(=O)n2nnn(-c3cccc(F)c3)c2=O)C1 [Example 43, N—{(R)-1-[4-(3-Fluoro-phenyl)-5-oxo-4,5-dihydro-tetrazole-1-carbonyl]-pyrrolidin-3-yl}-acetamide] | 25.8 nM | > 10000 nM |  | 
O=C(N1CCOCC1)n1nnn(-c2cc(F)ccc2F)c1=O [Example 124, 1-(2,5-difluorophenyl)-4-(morpholine-4-carbonyl)tetrazol-5-one] | 19 nM | > 10000 nM |  | 
O=C(N1CCOCC1)n1nnn(-c2ccc(F)cc2F)c1=O [Example 123, 1-(2,4-difluorophenyl)-4-(morpholine-4-carbonyl)tetrazol-5-one] | 12 nM | > 10000 nM |  | 
CCN(C(C)=O)C1CCN(C(=O)n2nnn(-c3cccc(F)c3)c2=O)C1 (stereo not drawn) [Example 44, N-Ethyl-N-{1-[4-(3-fluoro-phenyl)-5-oxo-4,5-dihydro-tetrazole-1-carbonyl]-pyrrolidin-3-yl}-acetamide] | 13.8 nM | > 10000 nM |  | 
O=C(N1CCOCC1)n1nnn(-c2cccc(F)c2)c1=O [Example 4, 1-(3-Fluoro-phenyl)-4-(morpholine-4-carbonyl)-1,4-dihydro-tetrazol-5-one] | 3 nM | > 10000 nM |  | 
CCOCCN(CC)C(=O)n1nnn(-c2ccc(Cl)cc2)c1=O [Example 100, 4-(4-Chloro-phenyl)-5-oxo-4,5-dihydro-tetrazole-1-carboxylic acid (2-ethoxy-ethyl)-ethyl-amide] |  |  | 1.7 nM | > 10000 nM
O=C(CN1CCN(C(=O)n2nnn(-c3cccc(OC(F)(F)F)c3)c2=O)CC1)N1CCCC1 [Example 96, 1-[4-(2-Oxo-2-pyrrolidin-1-yl-ethyl)-piperazine-1-carbonyl]-4-(3-trifluoromethoxy-phenyl)-1,4-dihydro-tetrazol-5-one] | 18.2 nM | > 10000 nM |  | 
CC1(C)CCN(C(=O)n2nnn(-c3ccc(Cl)cc3)c2=O)CC1 [Example 79, 1-(4-Chloro-phenyl)-4-(4,4-dimethyl-piperidine-1-carbonyl)-1,4-dihydro-tetrazol-5-one] | 0.9 nM | > 10000 nM |  | 
COCCN(C(=O)n1nnn(-c2cccc(F)c2)c1=O)C(C)C [Example 55, 4-(3-Fluoro-phenyl)-5-oxo-4,5-dihydro-tetrazole-1-carboxylic acid isopropyl-(2-methoxy-ethyl)-amide] | 4.1 nM | > 10000 nM |  | 
CCOCCN(C)C(=O)n1nnn(-c2cccc(Cl)c2)c1=O [Example 111, 4-(3-Chloro-phenyl)-5-oxo-4,5-dihydro-tetrazole-1-carboxylic acid (2-ethoxy-ethyl)-methyl-amide] | 1.5 nM | > 10000 nM |  | 
Cn1ccc2ccc(-n3nnn(C(=O)N4CCOCC4)c3=O)cc21 [Example 134, 1-(1-methylindol-6-yl)-4-(morpholine-4-carbonyl)tetrazol-5-one] | 8 nM | > 10000 nM |  | 
NC(=O)C1CCCN(C(=O)n2nnn(-c3cccc(F)c3)c2=O)C1 (stereo not drawn) [Example 3, 1-[4-(3-Fluoro-phenyl)-5-oxo-4,5-dihydro-tetrazole-1-carbonyl]-piperidine-3-carboxylic acid amide] | 15.9 nM | > 10000 nM |  | 
CCOCCN(C)C(=O)n1nnn(-c2ccc(Cl)cc2)c1=O [Example 113, 4-(4-Chloro-phenyl)-5-oxo-4,5-dihydro-tetrazole-1-carboxylic acid (2-ethoxy-ethyl)-methyl-amide] | 1.4 nM | > 10000 nM |  | 
CC(C(=O)N1CCCC1)N1CCN(C(=O)n2nnn(-c3ccc(Cl)cc3)c2=O)CC1 (stereo not drawn) [Example 118, 1-(4-Chloro-phenyl)-4-[4-(1-methyl-2-oxo-2-pyrrolidin-1-yl-ethyl)-piperazine-1-carbonyl]-1,4-dihydro-tetrazol-5-one] | 114 nM | > 10000 nM |  | 
N#C[C@H]1CCCN1C(=O)n1nnn(-c2cccc(F)c2)c1=O [Example 52, (R)-1-[4-(3-Fluoro-phenyl)-5-oxo-4,5-dihydro-tetrazole-1-carbonyl]-pyrrolidine-2-carbonitrile] | 129 nM | > 10000 nM |  | 
CC(C)Cn1nnn(C(=O)N(C)c2cccnc2)c1=O [Example 37, 4-Isobutyl-5-oxo-4,5-dihydro-tetrazole-1-carboxylic acid methyl-pyridin-3-yl-amide] | 407 nM | > 10000 nM |  | 
O=C(CN1CCN(C(=O)n2nnn(-c3cccc(Cl)c3)c2=O)CC1)N1CCCC1 [Example 95, 1-(3-Chloro-phenyl)-4-[4-(2-oxo-2-pyrrolidin-1-yl-ethyl)-piperazine-1-carbonyl]-1,4-dihydro-tetrazol-5-one] | 4.7 nM | > 10000 nM |  | 
CCOC(=O)N1CCN(C(=O)n2nnn(-c3cccc(F)c3)c2=O)CC1 [Example 50, 4-[4-(3-Fluoro-phenyl)-5-oxo-4,5-dihydro-tetrazole-1-carbonyl]-piperazine-1-carboxylic acid ethyl ester] | 567 nM | > 10000 nM |  | 
CC1CCCN1C(=O)n1nnn(-c2cccc(F)c2)c1=O (stereo not drawn) [Example 48, 1-(3-Fluoro-phenyl)-4-(2-methyl-pyrrolidine-1-carbonyl)-1,4-dihydro-tetrazol-5-one] | 6.7 nM | > 10000 nM |  | 
COCCN(C)C(=O)n1nnn(-c2cccc(F)c2)c1=O [Example 54, 4-(3-Fluoro-phenyl)-5-oxo-4,5-dihydro-tetrazole-1-carboxylic acid (2-methoxy-ethyl)-methyl-amide] | 1.3 nM | > 10000 nM |  | 
